≈ marks a conversion by molar mass, not a printed value.
Columns and labels:
[1] = test system: Multi-resistant Staphylococcus aureus (MRSA) USA300 cells; assay: MIC in vitro broth micro-dilution assay, MRSA USA300; format: cell-based; conditions: lowest concentration to fully inhibit visible growth (OD600), ATCC strain; for MIC: Staphylococcus aureus, read-out: in vitro susceptibility (MIC) MRSA USA3000
Experimental: (§1) Bacterial susceptibility was established through an in vitro cell-based broth micro-dilution assay. To produce accurate and reproducible MIC-values, a procedure was used which follows the guidelines set by the Clinical and Laboratory Standards Institute (CLSI, USA) and the European Committee on Antimicrobial Susceptibility Testing (EUCAST). The micro-dilutions were carried out in 96-well plates, according to FIG. 3, wherein column 1 is a growth control, Columns 2 to 11 are dilutions of 1×, 2×, 4×, 8×, 16×, 32×, 64×, 128×, 256×, 512× respectively, and column 12 is a sterile control. To further increase the reliability of each susceptibility test, inoculation involved the use of three independent overnight cultures (ON1-ON3) thus giving rise to […]. Furthermore, each ON was added to two individual dilution rows, giving rise to […]. The standard inoculum was set to ˜5-10^5 colony-forming units (CFU) mL^−1. This was verified by dilution onto agar plates after each overall run.
(§2) The applied procedure was:
(§3) 1.1 MH or BHI agar plates for dilutions were created, 1 plate per overnight (ON) culture and MH or BHI media. 1.2 Day 1: Preparation of ON cultures of the bacterial strain in question, by inoculation of a single colony in 5 mL of MH or BHI media. Then incubation at 37° C. with aeration for approximately 16-20 hours. Biological triplicates were created by inoculation from 3 different colonies per strain.
(§4) 1.3 Day 2: A 96-well plate with the antibiotic/compound in question was prepared as according to FIG. 3: 1.4 In a 15 mL falcon tube, an appropriate volume of a 1000 μg/mL antibiotic/compound DMSO stock was diluted with MH or BHI media such that a 2× concentration and total volume of 10 mL was achieved. 1.5 A multi-channel pipette was used in the following. 1.6 Column 1 was used for growth control, so no antibiotic/compound was added to that column. 1.7 200 μl of 2× concentration of the antibiotic/compound was added to column 2. Technical duplicates were always created, thus 2 columns per ON culture. 1.8 100 μl of MH or BHI media was added to columns 1, 3-11 and 200 μl of MH or BHI media to column 12. 1.9 100 μl was transferred from column 2 to column 3. The same pipetting tips were used to transfer 100 μL from column 3 to 4. This scheme was repeated until column 11 where 100 μl was discarded after re-suspending. Column 12 was used as a sterile control, so no antibiotic/compound was added to that column. Each transferring involved pipetting up and down 5 to 7 times. 1.10 The plates were fully dried for CFU in the 42° C. incubator, 4× dilutions in triplicates per one plate.
(§5) 1.11 The optical density of bacterial cells in the ON culture was measured at wavelength 600 nm (OD600). Then the ON culture was diluted to an OD600=0.1. 1.12 Then the OD600 was re-measured to make certain that it was between 0.08 and 0.13. 1.13 The prepared 0.1 culture of 1.12 was diluted 100× more by transferring of 100 μl thereof, to 10 ml of MH or BHI media (enough for a 96-well plate). 1.14 Then 200 μl of the 100× dilution in 1.13 was transferred to Eppendorf tubes and kept cold until use. 1.15 100 μl of culture with an OD600 on approximately 0.001 was dispensed to each well of columns 1 to 11. 1.16 The plate was closed. Covered with aluminium foil and small holes were created with a 100-200 μL tip.
(§6) 1.17 The 96-well plate was then incubated at 37° C. with agitation and left for 16-hours.
(§7) 1.18 Verification of standard inoculum: The 100× diluted culture of 1.13 was used to create 10^−1 to 10^−4 dilutions in PBS/0.9% saline (100 μl sample to 900 μl PBS, mix well and continue until 10^−4). 1.19 10 μl of the 10^−2, 10^−3 and 10^−4 dilutions in 1.18 were spotted onto very dry MH or BHI plates in triplicates. 1.20 Then incubated overnight at 37° C. 1.21 The plates were examined manually or by using the plate reader.

[2] = test system: vancomycin-resistant enterococci (VRE) cells, VRE 5; assay: MIC in vitro broth micro-dilution assay, VRE 5; format: cell-based; conditions: lowest concentration to fully inhibit visible growth (OD600), clinical isolate, ampicillin, ciprofloxacin, vancomycin and linezolid resistant; for MIC: Enterococcus, VRE, read-out: in vitro susceptibility (MIC) VRE 5
Experimental: as §1, §2, §3, §4, §5, §6, §7

[3] = test system: vancomycin-resistant enterococci (VRE) cells, VRE 1; assay: MIC in vitro broth micro-dilution assay, VRE 1; format: cell-based; conditions: lowest concentration to fully inhibit visible growth (OD600), clinical isolate, ampicillin, ciprofloxacin and vancomycin resistant; for MIC: Enterococcus, VRE, read-out: in vitro susceptibility (MIC) VRE 1
Experimental: as §1, §2, §3, §4, §5, §6, §7

[4] = test system: S. pneumonia cells; assay: MIC in vitro broth micro-dilution assay, S. pneumonia; format: cell-based, Streptococcus pneumonia; conditions: lowest concentration to fully inhibit visible growth (OD600), clinical isolate; for MIC: Streptococcus pneumoniae, read-out: in vitro susceptibility (MIC) S. Pneumonia
Experimental: as §1, §2, §3, §4, §5, §6, §7

[5] = test system: E. faecalis cells; assay: MIC in vitro broth micro-dilution assay, E. faecalis; format: cell-based, Enterococcus faecalis; conditions: lowest concentration to fully inhibit visible growth (OD600), clinical isolate; for MIC: Enterococcus faecalis, read-out: in vitro susceptibility (MIC) E. Faecalis
Experimental: as §1, §2, §3, §4, §5, §6, §7

Compound	MIC [1] [µg/mL]	MIC [2] [µg/mL]	MIC [3] [µg/mL]	MIC [4] [µg/mL]	MIC [5] [µg/mL]	in vitro susceptibility (MIC) MRSA USA3000 [1] [µg/mL]	in vitro susceptibility (MIC) VRE 5 [2] [µg/mL]	in vitro susceptibility (MIC) VRE 1 [3] [µg/mL]	in vitro susceptibility (MIC) S. Pneumonia [4] [µg/mL]	in vitro susceptibility (MIC) E. Faecalis [5] [µg/mL]
C=C[C@]1(C)C[C@@H](OC(=O)Cn2cc(-c3ccc([C@@H](C)n4cnc5c(N)ncnc54)cc3)nn2)[C@]2(C)[C@H](C)CC[C@]3(CCC(=O)[C@H]32)[C@@H](C)[C@@H]1O [C12, 22-[4-(4-((R)-1-(6-amino-9H-purin-9-yl)ethyl)phenyl)-1H-1,2,3-triazol-1-yl]-22-deoxypleuromutilin]	0.12 (≈ 0.18 µM)	0.25 (≈ 0.375 µM)	0.25 (≈ 0.375 µM)	0.25 (≈ 0.375 µM)	0.25 (≈ 0.375 µM)	–	–	–	–	–
C=C[C@]1(C)C[C@@H](OC(=O)Cn2cc(-c3ccc([C@@H](C)n4cnc5c(N6CCNCC6)ncnc54)cc3)nn2)[C@]2(C)[C@H](C)CC[C@]3(CCC(=O)[C@H]32)[C@@H](C)[C@@H]1O [C13, 22-[4-(4-((R)-1-(6-(piperazin-1-yl)-9H-purin-9-yl)ethyl)phenyl)-1H-1,2,3-triazol-1-yl]-22-deoxypleuromutilin]	0.5 (≈ 0.679 µM)	0.12 to 0.25 (≈ 0.163 to 0.34 µM)	0.25 (≈ 0.34 µM)	0.25 (≈ 0.34 µM)	0.25 (≈ 0.34 µM)	–	–	–	–	–
C=C[C@]1(C)C[C@@H](OC(=O)Cn2cc(-c3cccc(NC(=O)c4ccc(OC)cc4)c3)nn2)[C@]2(C)[C@H](C)CC[C@]3(CCC(=O)[C@H]32)[C@@H](C)[C@@H]1O [C15, 22-[4-(3-(4-methoxybenzamido)phenyl)-1,2,3-triazole-1-yl]-22-deoxypleuromutilin]	0.12 (≈ 0.183 µM)	0.25 (≈ 0.382 µM)	0.12 (≈ 0.183 µM)	0.25 (≈ 0.382 µM)	0.25 (≈ 0.382 µM)	–	–	–	–	–
C=C[C@]1(C)C[C@@H](OC(=O)Cn2cc(-c3cccc(Nc4ncnc5[nH]cnc45)c3)nn2)[C@]2(C)[C@H](C)CC[C@]3(CCC(=O)[C@H]32)[C@@H](C)[C@@H]1O [C18, 22-[4-(3-((9H-purin-6-yl)amino)phenyl)-1,2,3-triazole-1-yl]-22-deoxypleuromutilin]	0.06 (≈ 0.0939 µM)	0.25 (≈ 0.391 µM)	0.25 (≈ 0.391 µM)	0.5 (≈ 0.783 µM)	0.5 (≈ 0.783 µM)	–	–	–	–	–
C=C[C@]1(C)C[C@@H](OC(=O)Cn2cc(-c3cc(C#N)ccc3O)nn2)[C@]2(C)[C@H](C)CC[C@]3(CCC(=O)[C@H]32)[C@@H](C)[C@@H]1O [C19, 22-[4-(5-cyano-2-hydroxyphenyl)-1H-1,2,3-triazol-1-yl]-22-deoxypleuromutilin]	0.25 (≈ 0.457 µM)	1 (≈ 1.83 µM)	1 (≈ 1.83 µM)	4 (≈ 7.32 µM)	2 (≈ 3.66 µM)	–	–	–	–	–
C=C[C@]1(C)C[C@@H](OC(=O)Cn2cc(-c3ccc(Cn4cc(C)c(=O)[nH]c4=O)cc3)nn2)[C@]2(C)[C@H](C)CC[C@]3(CCC(=O)[C@H]32)[C@@H](C)[C@@H]1O [C20, 22-[4-(4-((Thymine-1-yl)methyl)phenyl)-1,2,3-triazol-1-yl]-22-deoxypleuromutilin]	0.12 (≈ 0.186 µM)	0.5 (≈ 0.777 µM)	0.5 (≈ 0.777 µM)	1 (≈ 1.55 µM)	1 (≈ 1.55 µM)	–	–	–	–	–
Retapamulin [reference compound]	–	–	–	–	–	0.25	0.03	0.03	0.12	0.12
Valnemulin [reference compound]	–	–	–	–	–	0.06	0.015	0.03	0.06 to 0.12	0.03

From patent US20230219964A1, “ANTIBACTERIAL AND ANTIFUNGAL PLEUROMUTILIN CONJUGATES” (SYDDANSK UNIVERSITET, priority 2020, published 2023)
